Reference: patent US12029734B2, “Compositions and methods for treatment of symptoms in Parkinson's disease patients” (Tyler Medical Research, LLC, priority 2011, dated 2024)
Where two headings read alike, the source gives them in different places.

What was measured:
[1] = cited from earlier work
[2] = test system: patients with idiopathic PD and LIDS; experiment: Phase II clinical trial of nicotine: safety assessments (AEs, laboratory tests, serum cotinine, ECG, JayMidi, MNWS-R); conditions: human, in vivo
Description: (§1) Safety was assessed by incidences of adverse experiences (AE), clinical laboratory tests, serum cotinine, ECG and vital signs. Impulsive symptoms were assessed using the Jay Modified Minnesota Impulsive Disorders Interview (JayMidi). Withdrawal symptoms were evaluated using the Minnesota Nicotine Withdrawal Scale (MNWS-R).

[3] = test system: patients with idiopathic PD and LIDS
Description: as §1

[4] = test system: patients with idiopathic PD and LIDS; remark: listed apart in the source
Text: A total of 65 patients with idiopathic PD and LIDS were enrolled in a phase II study. Major entry criteria were as follows: 1) Hoehn and Yahr Stage II-IV while in “on” state, 2) had moderately to severely disabling LIDS>25% of waking day as determined by a rating of >2 on each of Questions 32 and 33 of the Unified Parkinson's Disease Rating Scale (UPDRS), 3) be on stable doses of levodopa and other medicines for PD for >30 days, 4) have a negative screening urine test for cotinine, and 5) not be a smoker or previous smoker or regular exposure to second-hand smoke. The study consisted of 3 phases: a treatment period of 10 weeks, a 9-day drug taper period, and a 5-day follow-up period. Subjects were randomly assigned to receive either nicotine or placebo (pbo). Dosing began at 1 mg q6 hr and was escalated at 2-week intervals to 6 mg q6 hr (24 mg/day). All subjects were allowed to take ondansetron as rescue medication for the treatment of nausea and/or vomiting for the first 3 days of each dose escalation. Subjects were maintained on 24 mg/day for 4 weeks.
Efficacy was assessed using the UPDRS (total of Parts II+III+IV), sum of Q32+Q33, Unified Dyskiensia Rating Scale (UDysRS) total scores and subscores, Lang-Fahn Dyskinesia Activities of Daily Living Scale (LF-ADL), physician and patient ratings of improvement from baseline in dyskinesias on 7-point CGI-C and PGI-C scales, and responder analyses (subjects with >25% improvement from baseline) on UDysRS total score and LF-ADL, and % subjects with any improvement on PGI-C and CGI-C.
The safety population for all safety analyses consisted of all subjects who received at least 1 dose of nicotine or placebo.

## N[C@@H](Cc1ccc(O)c(O)c1)C(=O)O [Levodopa, L-3,4-dihydroxyphenylalanine (S)-2-amino-3-(3,4-dihydroxyphenyl)propanoic acid]
[1]
  solubility in water: slightly soluble in water

## CN1CCC[C@H]1c1cccnc1 [nicotine, 3-[(2S)-1-methylpyrrolidin-2-yl]pyridine]
[2]
  changes in ECG parameters: no clinically relevant changes
  withdrawal symptoms as assessed by MNWS-R, clinical relevance: not a clinically relevant issue
[3]; PD patients with LIDS, oral, escalated from 1 mg q6 hr to 6 mg q6 hr (24 mg/day), 10 weeks
  overall safety and tolerability: generally safe and well-tolerated
[3]; Week 10 (end of drug treatment)
  withdrawal symptoms, MNWS-R score (maximal score 60): 7.5
[3]; all SAEs
  relation of SAEs to study medication: unrelated to study medication
[3]; end of the follow-up period
  withdrawal symptoms, MNWS-R score (maximal score 60): 5.4
[3]; nicotine group
  occurrences of impulsivity disorders (positive score on any JayMidi module): 1 subject
  overall incidence of serious AEs (SAE): 4 subjects
  percentage of subjects reporting treatment-related AEs: 54%
  subjects who used rescue medication (ondansetron): Twenty-nine
  treatment-emergent AE: constipation, subjects: 11%
  treatment-emergent AE: dizziness, subjects: 11%
  treatment-emergent AE: fatigue, subjects: 9%
  treatment-emergent AE: nausea, subjects: 31%
  treatment-emergent AE: nightmares, subjects: 6%
  treatment-emergent AE: non-specific pain, subjects: 9%
  treatment-emergent AE: vomiting, subjects: 6%
[3]; nicotine group, n=35 randomized
  subjects withdrawn due to treatment-related AEs: 6 subjects
[3]; on 4 mg/day
  subjects withdrawn due to treatment-related AEs: 1 subject
[3]; on 8 mg/day
  subjects withdrawn due to treatment-related AEs: 1 subject
[3]; on 16 mg/day
  subjects withdrawn due to treatment-related AEs: 2 subjects
[3]; on 24 mg/day
  subjects withdrawn due to treatment-related AEs: 2 subjects
[3]; patients treated with nicotine, dose escalation
  serum cotinine levels: increased with increasing dose
[3]; transient in duration
  intensity of the majority of adverse events: mild or moderate in intensity
[4]; 10 weeks of treatment
  UPDRS total scores: did not worsen, but improved
[4]; Week 10 (FIG. 3)
  number of UDysRS subscores improved (mean changes from baseline compared to pbo): 9 of 10
[4]; Week 10, change from baseline (FIG. 1)
  UPDRS Part III score, maximum mean improvement: 2.0 points
[4]; Week 10, p=0.04 versus pbo
  LF-ADL responders (>25% improvement from baseline): 56%
[4]; after 10 weeks (FIG. 4)
  CGI-C pattern compared to pbo: similar, but not statistically significant pattern
[4]; after 10 weeks, p=0.004 versus pbo (FIG. 4)
  PGI-C: patients rating themselves as having any degree of improvement: 78%
[4]; compared to pbo
  efficacy on LIDS on the majority of patient- and physician-rated outcome measures: trend or statistically significant improvement
[4]; compared to placebo, every visit during drug treatment
  UPDRS mean change from baseline to Week 10: numerical improvement
[4]; every study visit during the drug-treatment period (FIG. 2)
  UDysRS total score: Mean improvement from baseline and greater separation from pbo
[4]; p=0.02
  PGI-C: distribution of subjects in each category compared to pbo: significant
[4]; versus pbo, p=0.01
  ambulation (UDysRS subscore): Statistically significant improvement
